The record followed here is patent US20250235562A1, “USE OF SECOND NEAR-INFRARED ORGANIC FLUORESCENT COMPOUND IN PREPARATION OF BIOIMAGING CONTRAST AGENT AND IN VASCULAR FLUORESCENCE IMAGING” (INNER MONGOLIA UNIVERSITY, priority 2024, published 2025).

The structures appear in SMILES notation.

The data set in a line: Photostability test under continuous white light irradiation. To be noted: 50 mW·cm^−2 white light, continuous irradiation 40 min. In kind it is physicochemical. As to the method: (3) Photostability test of the nanoimaging agent Y6CT-NPs: commercial imaging agent indocyanine green (ICG) was selected as a reference. Y6CT-NPs and ICG were irradiated continuously by 50 mW·cm^−2 white light (laparoscopic LED cold light source) for 40 min, and the fluorescence intensity of the two were recorded at different time points, a ratio of which to the initial fluorescence intensity was calculated to compare the attenuation degree of fluorescence intensity and photostability between the two.

Turning to `CC1(C)C(/C=C/C=C/C=C/C=C2\N(CCCCS(=O)(=O)O)c3ccc4ccccc4c3C2(C)C)=[N+](CCCCS(=O)(=O)[O-])c2ccc3ccccc3c21` [ICG, indocyanine green], the “change of fluorescence intensity after continuous irradiation” value is on record as “decreases significantly” and the “fluorescence intensity at 40 min relative to the initial fluorescence intensity” value is given as 30%.
